The source of these data is article PMC6749418, “SAR by Space: Enriching Hit Sets from the Chemical Space” (Molecules, 2019).

pIC50: −log10 of the molar value.

For the first assay, the system named is T1, bromodomain 1 of BRD4.
T1 construct: made in house
As to the kind of experiment: Thermal shift assay (TSA) with recombinant, truncated, His-tagged bromodomain 1 of BRD4. Conditions: compound at 10 μM, 1% DMSO, 4 μM protein. The format is binding. The protocol: The compounds were synthesized according to the standard protocols for typical parallel synthesis transformations, including amide/sulfonamide coupling, reductive amination, urea synthesis, arylation/alkylation, etc. The synthesis was completed in a three-week period and all the 32 compounds could actually be synthesized. The products obtained were subjected to thermal shift assay (TSA) using recombinant, truncated, His-tagged bromodomain 1 of BRD4 [28] at 40, 20, and 10 μM (Figure 4). The hit selection criteria followed those described in our previous publication:|ΔTm| ≥ |ΔTm,av| + 3|σ(ΔTm)|(1) |ΔTm| ≥ 2|σ(Tm,DMSO)|(2) where ΔTm—thermal shift caused by the compound; ΔTm,av—mean thermal shift value within the plate; σ(ΔTm)—standard deviation of the thermal shift values within the plate; σ(Tm,DMSO)—standard deviation of the melting temperature values obtained for the control samples.
All tested compounds were obtained from Enamine Ltd. (Kyiv, Ukraine). Stock solutions of the tested compounds were prepared in 100% DMSO and were stored at −20 °C until use. The bromodomain 1 of BRD4 was expressed using pNIC28-Bsa4 plasmid vector with an insert representing domain 1 of BRD4 (44–168 AA, sequence entry O60885.1 in UniProtKB Database), N-terminus His6-tag and 16-amino acid linker.
All thermal shift assay (TSA) experiments with BRD4 protein were performed using ViiA™7 real-time PCR System equipped with 384-well heat block (Applied Biosystems, Waltham, MA, USA). General TSA methodology was adopted from the literature and experimentally modified in order to optimize conditions for measuring BRD4 melting temperature shifts upon interaction with small molecules. The optimal buffer composition for the TSA procedure was determined as described previously. Buffer consisting of 50 mM Phosphate-Na, 100 mM NaCl, pH = 7.5 was selected for BRD4 screening in this study. Purified BRD4 protein was pre-mixed with SYPRO Orange dye (Thermo Fischer Scientific, Cat. S6650, 5000x stock, Waltham, MA, USA) to prepare a master mix at 4 μM protein and 6× dye concentrations. Tested compounds were added to the protein-dye master mix at 40, 20, or 10 μM at 1% final DMSO concentration and incubated at 4 °C for 1 h in MicroAmp® optical 384-well reaction plates (ThermoFisher, Cat. 4309849, Waltham, MA, USA) sealed with optical sealing film (ThermalSeal RT2, Excel Scientific, Cat. TS-RT2, Victorville, CA, USA). The volumes of all reaction mixtures were 10 µL ([…]). The reaction plates were then kept at ambient temperature (22–24 °C) for an additional 15 min to ensure protein-compound interactions. Thermal scanning was performed by raising the temperature to 40 °C at 1.6 °C/min without signal detection followed by 40 °C to 90 °C temperature ramp at 0.05 °C/s with constant fluorescence intensity reading at 1-sec intervals using EX470/EM623 nm filter set.
Primary screening of the whole test set of 49 compounds was carried out in singletons. The raw data of dye fluorescence intensity change upon protein melt were exported using the ViiA7 RUO software (Applied Biosystems/Thermo Fischer Scientific). Further data visualization, curve fitting, melting temperature calculations on the raw fluorescence data were performed using custom-made Microsoft Excel scripts. The peak of the first derivative for the fluorescence curve was used to define melting temperature (Tm). Averaged Tm values for the control wells containing only the protein, dye and 1% DMSO were used as a reference point to determine melting temperature shifts (ΔTm).
On to `CC(C)(CNc1ccc2nnc(C(F)(F)F)n2n1)c1cccnc1` [C00007], for which the “ΔTm (°C) at 10 μM” value is 0.34 ± 0.19 °C.
Same read-out and setting: the same measure for `CC1CC(=O)N(C)c2ccc(NC(=O)NCc3nc(N(C)C)no3)cc21` (stereo not shown) [C00004]: 0.30 ± 0.10 °C; for `CCC1Oc2cc(C(C)NC(=O)Cc3c(C)nc4[nH][nH]c(=O)c4c3C)ccc2NC1=O` (stereo not shown) [C00009]: 0.29 ± 0.01 °C.
The same measure, in the same setting: then `CC1(C)C(=O)Nc2ccc(C(=O)Nc3cc(Cl)c(O)cc3F)cc21` [C00002], with 0.31 ± 0.05 °C; and `CC(C)(C)c1nnc2ccc(NCC(C)(C)c3cccnc3)nn12` [C00006], with 0.34 ± 0.13 °C.

The same assay, now with this note: compound at 20 μM, 1% DMSO, 4 μM protein.
Consider `CC(C)(CNc1ccc2nnc(C(F)(F)F)n2n1)c1cccnc1` [C00007], for which the “ΔTm (°C) at 20 μM” value came to 0.78 ± 0.14 °C.
The same measure, in the same setting: the same measure for `CC1CC(=O)N(C)c2ccc(NC(=O)NCc3nc(N(C)C)no3)cc21` (stereo not shown) [C00004]: 0.72 ± 0.41 °C; for `CCC1Oc2cc(C(C)NC(=O)Cc3c(C)nc4[nH][nH]c(=O)c4c3C)ccc2NC1=O` (stereo not shown) [C00009]: 0.44 ± 0.06 °C; for `CC1(C)C(=O)Nc2ccc(C(=O)Nc3cc(Cl)c(O)cc3F)cc21` [C00002]: 0.39 ± 0.08 °C.
On the same count and under the same terms, the same measure for `CC(C)(C)c1nnc2ccc(NCC(C)(C)c3cccnc3)nn12` [C00006]: 0.98 ± 0.22 °C.

The same assay, now with this note: compound at 40 μM, 1% DMSO, 4 μM protein.
As to `CC(C)(CNc1ccc2nnc(C(F)(F)F)n2n1)c1cccnc1` [C00007], the “ΔTm (°C) at 40 μM” value came out at 1.56 ± 0.05 °C.
Take `CC1CC(=O)N(C)c2ccc(NC(=O)NCc3nc(N(C)C)no3)cc21` (stereo not shown) [C00004]: the “ΔTm (°C) at 40 μM” value turned out to be 1.52 ± 0.59 °C.
Same read-out and setting: then `CCC1Oc2cc(C(C)NC(=O)Cc3c(C)nc4[nH][nH]c(=O)c4c3C)ccc2NC1=O` (stereo not shown) [C00009], with 0.53 ± 0.25 °C.
Still for that read-out and setting: then `CC1(C)C(=O)Nc2ccc(C(=O)Nc3cc(Cl)c(O)cc3F)cc21` [C00002], with 0.71 ± 0.01 °C; and `CC(C)(C)c1nnc2ccc(NCC(C)(C)c3cccnc3)nn12` [C00006], with 1.33 ± 0.17 °C.

Another assay has as its target T2, BRD4 (BD1+BD2) (Homo sapiens, UniProt O60885).
T2 construct: BRD4 (BD1+BD2) TR-FRET assay kit from BPS Bioscience; purchased BPS Bioscience
As to the kind of experiment: BRD4 (BD1+BD2) TR-FRET assay, IC50 measurement. Type of assay: biochemical. Conditions: average from three independent experiments. The protocol:
Dose-response curves were built for these compounds, and for 5 of them, IC50 values were determined in TR-FRET assay as an average from three independent experiments (Table 1). Comparing the resulting hit molecules with the corresponding initial queries, one can see considerable structural differences. […] The relatively high FTrees similarity explains why they were not missed in the REAL Space search: The molecules still have very similar pharmacophoric properties in a similar arrangement. […] This is exemplary shown in Figure 7 for compound 20 and its respective query molecule 15. The shift of the nitrogen atom to the β position of the pyridine ring, as well as the different linker length, led to a completely flipped binding mode. It is also important to stress that the starting points of this study which led to the hits (compounds 19–22) had no significant activity against BRD4 in the functional (TR-FRET) assay; they were identified only in the binding assay (TSA).
All TR-FRET assays and IC50 measurements were performed using BRD4 (BD1+BD2) TR-FRET assay kit from BPS Bioscience (www.bpsbioscience.com) following the standard procedure.
Usually pIC50 stands for −log10 of the IC50, conventionally taken in molar units. For `CC(C)(CNc1ccc2nnc(C(F)(F)F)n2n1)c1cccnc1` [C00007], the pIC50 was 4.17.
Still for that read-out and setting: then `CC1CC(=O)N(C)c2ccc(NC(=O)NCc3nc(N(C)C)no3)cc21` (stereo not shown) [C00004], with 4.58.
Same read-out and setting: the same measure for `CCC1Oc2cc(C(C)NC(=O)Cc3c(C)nc4[nH][nH]c(=O)c4c3C)ccc2NC1=O` (stereo not shown) [C00009]: 3.85; for `CC1(C)C(=O)Nc2ccc(C(=O)Nc3cc(Cl)c(O)cc3F)cc21` [C00002]: 4.97; for `CC(C)(C)c1nnc2ccc(NCC(C)(C)c3cccnc3)nn12` [C00006]: 4.35.

A further assay relates to BRD4.
Test: not given
Conditions: 10 μM; known BRD4 inhibitors, Figure 6; cited from earlier work.
`O=C1CCc2cc(NC(=O)Nc3ccc(C(F)(F)F)cc3)ccc2N1` [compound 32]: the “inhibition at 10 μM” value is recorded as “up to 92%”.

The assay is the same for the next values; noted with them: investigational BRD4 inhibitors, Figure 1; cited from earlier work.
On to `COc1nnc2ccc(N3CCC(c4ccc(OCCN5CCN(C)C(=O)[C@H]5C)cc4)CC3)nn12` [AZD5153], for which the pIC50 was 8.30.
Regarding `Cc1noc2c1-c1ccccc1C(c1ccc(Cl)cc1)=N[C@H]2CC(N)=O` [CPI-0610], the pIC50 is 7.74.
For the compound `CCS(=O)(=O)Nc1ccc(Oc2ccc(F)cc2F)c(-c2cn(C)c(=O)c3[nH]ccc23)c1` [mivebresib, Mivebresib], the pIC50 was 8.70 to 9.00.

Still in this assay, the particulars now being: known BRD4 inhibitors, Figure 6; cited from earlier work.
In the case of `O=C1Nc2ccc(NS(=O)(=O)C3CCCCC3)cc2C12CCC2` [compound 31], the pIC50 is more than 6.82.
